Assay results as given in ChEMBL document CHEMBL1201862, “PubChem BioAssay data set” (2004).
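Briefly, cells in 96-well plates were exposed to five compound concentrations for 48 h, and endpoints were estimated by linear interpolation. Abbreviation: GI50, concentration required for 50% inhibition of growth.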 Calls of active or inactive are those of the source. Cut-off read from the data, not from the text of the source: active = GI50 up to about 1.1 µM and inactive = higher.

Key:
Test in all cases: inhibition of tumour cell growth, NCI panel, 48 h
HT-29 = system: HT-29
SF-268 = system: SF-268
SNB-75 = system: SNB-75
MDA-MB-435 = system: MDA-MB-435
NCI-H460 = system: NCI-H460
LOX IMVI = system: LOX IMVI
SF-295 = system: SF-295
M14 = system: M14
OVCAR-5 = system: OVCAR-5
PC-3 = system: PC-3
T47D = system: T47D
SK-MEL-28 = system: SK-MEL-28
HCT-15 = system: HCT-15
SK-MEL-2 = system: SK-MEL-2
A549 = system: A549
HCT-116 = system: HCT-116
HCC 2998 = system: HCC 2998
SK-OV-3 = system: SK-OV-3
SW-620 = system: SW-620
SR = system: SR
Malme-3M = system: Malme-3M
CAKI-1 = system: CAKI-1
TK-10 = system: TK-10
HOP-92 = system: HOP-92
NCI/ADR-RES = system: NCI/ADR-RES
KM12 = system: KM12
NCI-H226 = system: NCI-H226
SF-539 = system: SF-539
RXF 393 = system: RXF 393
OVCAR-4 = system: OVCAR-4
DU-145 = system: DU-145
EKVX = system: EKVX
NCI-H522 = system: NCI-H522
A498 = system: A498
HL-60 = system: HL-60
HOP-62 = system: HOP-62
MDA-MB-231 = system: MDA-MB-231
ACHN = system: ACHN
OVCAR-3 = system: OVCAR-3
MCF7 = system: MCF7
UACC-257 = system: UACC-257
COLO 205 = system: COLO 205
K562 = system: K562
OVCAR-8 = system: OVCAR-8
U-251 = system: U-251
786-0 = system: 786-0
MDA-N = system: MDA-N
Hs-578T = system: Hs-578T
SN12C = system: SN12C
SK-MEL-5 = system: SK-MEL-5
NCI-H23 = system: NCI-H23
UO-31 = system: UO-31
MOLT-4 = system: MOLT-4
CCRF-CEM = system: CCRF-CEM
RPMI-8226 = system: RPMI-8226
IGROV-1 = system: IGROV-1
SNB-19 = system: SNB-19
UACC-62 = system: UACC-62
BT-549 = system: BT-549

Compound: COC(=O)[C@H](Cc1ccccc1)NP(=O)(O)OCC1OC(n2cc(C)c(=O)[nH]c2=O)CC1N=[N+]=[N-] (stereo partly specified)
- GI50 (HT-29): > 100 µM (inactive)
- GI50 (SF-268): > 100 µM (inactive)
- GI50 (SNB-75): > 100 µM (inactive)
- GI50 (MDA-MB-435): > 100 µM (inactive)
- GI50 (NCI-H460): > 100 µM (inactive)
- GI50 (LOX IMVI): > 100 µM (inactive)
- GI50 (SF-295): > 100 µM (inactive)
- GI50 (M14): > 100 µM (inactive)
- GI50 (OVCAR-5): > 100 µM (inactive)
- GI50 (PC-3): > 100 µM (inactive)
- GI50 (T47D): > 100 µM (inactive)
- GI50 (SK-MEL-28): > 100 µM (inactive)
- GI50 (HCT-15): > 100 µM
- GI50 (SK-MEL-2): > 100 µM (inactive)
- GI50 (A549): > 100 µM (inactive)
- GI50 (HCT-116): > 100 µM (inactive)
- GI50 (HCC 2998): > 100 µM (inactive)
- GI50 (SK-OV-3): > 100 µM (inactive)
- GI50 (SW-620): > 100 µM (inactive)
- GI50 (SR): > 100 µM (inactive)
- GI50 (Malme-3M): > 100 µM (inactive)
- GI50 (CAKI-1): > 100 µM (inactive)
- GI50 (TK-10): > 100 µM (inactive)
- GI50 (HOP-92): > 100 µM (inactive)
- GI50 (NCI/ADR-RES): > 100 µM (inactive)
- GI50 (KM12): > 100 µM (inactive)
- GI50 (NCI-H226): > 100 µM (inactive)
- GI50 (SF-539): > 100 µM (inactive)
- GI50 (RXF 393): > 100 µM (inactive)
- GI50 (OVCAR-4): > 100 µM (inactive)
- GI50 (DU-145): > 100 µM (inactive)
- GI50 (EKVX): > 100 µM (inactive)
- GI50 (NCI-H522): > 100 µM (inactive)
- GI50 (A498): > 100 µM (inactive)
- GI50 (HL-60): > 100 µM (inactive)
- GI50 (HOP-62): > 100 µM (inactive)
- GI50 (MDA-MB-231): > 100 µM (inactive)
- GI50 (ACHN): > 100 µM (inactive)
- GI50 (OVCAR-3): > 100 µM (inactive)
- GI50 (MCF7): > 100 µM (inactive)
- GI50 (UACC-257): > 100 µM (inactive)
- GI50 (COLO 205): > 100 µM (inactive)
- GI50 (K562): > 100 µM (inactive)
- GI50 (OVCAR-8): > 100 µM (inactive)
- GI50 (U-251): > 100 µM (inactive)
- GI50 (786-0): > 100 µM (inactive)
- GI50 (MDA-N): > 100 µM (inactive)
- GI50 (Hs-578T): > 100 µM (inactive)
- GI50 (SN12C): > 100 µM (inactive)
- GI50 (SK-MEL-5): > 100 µM (inactive)
- GI50 (NCI-H23): > 100 µM (inactive)
- GI50 (UO-31): > 100 µM (inactive)
- GI50 (MOLT-4): > 100 µM (inactive)
- GI50 (CCRF-CEM): > 100 µM (inactive)
- GI50 (RPMI-8226): > 100 µM (inactive)
- GI50 (IGROV-1): > 100 µM (inactive)
- GI50 (SNB-19): > 100 µM (inactive)

Compound: O=C1C2=Cc3ccccc3OC2(O)Oc2cc3ccccc3cc21 (stereo unspecified)
- GI50 (UACC-62): > 100 µM (inactive)
- GI50 (HT-29): > 100 µM (inactive)
- GI50 (SF-268): 36.1 µM (inactive)
- GI50 (SNB-75): 25.9 µM (inactive)
- GI50 (MDA-MB-435): > 100 µM (inactive)
- GI50 (NCI-H460): > 100 µM (inactive)
- GI50 (LOX IMVI): > 100 µM (inactive)
- GI50 (SF-295): 94.8 µM (inactive)
- GI50 (M14): > 100 µM (inactive)
- GI50 (OVCAR-5): > 100 µM (inactive)
- GI50 (PC-3): > 100 µM (inactive)
- GI50 (T47D): > 100 µM (inactive)
- GI50 (SK-MEL-28): > 100 µM (inactive)
- GI50 (HCT-15): > 100 µM
- GI50 (SK-MEL-2): > 100 µM (inactive)
- GI50 (A549): > 100 µM (inactive)
- GI50 (HCT-116): > 100 µM (inactive)
- GI50 (HCC 2998): 28.1 µM (inactive)
- GI50 (SK-OV-3): 56.5 µM (inactive)
- GI50 (SW-620): > 100 µM (inactive)
- GI50 (SR): > 100 µM (inactive)
- GI50 (Malme-3M): > 100 µM (inactive)
- GI50 (CAKI-1): > 100 µM (inactive)
- GI50 (TK-10): > 100 µM (inactive)
- GI50 (HOP-92): 74.3 µM (inactive)
- GI50 (NCI/ADR-RES): > 100 µM (inactive)
- GI50 (KM12): 41.4 µM (inactive)
- GI50 (NCI-H226): 56.1 µM (inactive)
- GI50 (SF-539): 20 µM (inactive)
- GI50 (RXF 393): 58.1 µM (inactive)
- GI50 (OVCAR-4): 49.7 µM (inactive)
- GI50 (DU-145): > 100 µM (inactive)
- GI50 (EKVX): > 100 µM (inactive)
- GI50 (A498): > 100 µM (inactive)
- GI50 (HOP-62): > 100 µM (inactive)
- GI50 (MDA-MB-231): > 100 µM (inactive)
- GI50 (ACHN): 87.9 µM (inactive)
- GI50 (OVCAR-3): 57.8 µM (inactive)
- GI50 (BT-549): 15.1 µM (inactive)
- GI50 (MCF7): > 100 µM (inactive)
- GI50 (UACC-257): > 100 µM (inactive)
- GI50 (COLO 205): > 100 µM (inactive)
- GI50 (K562): > 100 µM (inactive)
- GI50 (OVCAR-8): > 100 µM (inactive)
- GI50 (U-251): 50.9 µM (inactive)
- GI50 (786-0): > 100 µM (inactive)
- GI50 (MDA-N): > 100 µM (inactive)
- GI50 (SN12C): > 100 µM (inactive)
- GI50 (SK-MEL-5): > 100 µM (inactive)
- GI50 (NCI-H23): > 100 µM (inactive)
- GI50 (MOLT-4): > 100 µM (inactive)
- GI50 (CCRF-CEM): > 100 µM (inactive)
- GI50 (RPMI-8226): > 100 µM (inactive)
- GI50 (IGROV-1): 28.7 µM (inactive)
